According to PubChem BioAssay AID332 (DTP/NCI, 2004):
“And” between values parts separate entries of the source, which are not always exact repeats. Equal entries are not always repeated. Results filed as inconclusive are left out. Numbered stars: 1 amine (or outer) side, 2 acyl side, 3 side chain; on linkers, the order of the positions; unused ones are H or OH. Bridge positions count the residues as written; N and C are the ends. Square brackets hold non-standard residues; d marks the D form. Peptide text beside a SMILES is read from it. I, II: the chains in the order shown. Actinocin(9to1) = Cc1c2oc3c(C)ccc(C(=O)[*:1])c3nc-2c(C(=O)[*:2])c(N)c1=O; aThr = C[C@H](O)[C@H](N)C(=O)O; NMeV = CN[C@H](C(=O)O)C(C)C; Sar = CNCC(=O)O

Test system: mice, ADJ-PC-20 plasma cell tumor sc, T/C %
Experiment: NCI In Vivo Anticancer Drug Screen. Data for tumor model ADJ-PC-20 Plasma Cell (subcutaneous) in unknown mice
Details: endpoint: mean tumor weight, higher = larger tumour
Description: The antitumor activity of compounds was measured in mice bearing transplantable tumors. Survival or tumor size were measured and the results are expressed as the measurement made in the treated group (T) divided by the measurement made in the vehicle treated control group (C). The tumor model used in this assay is ADJ-PC-20 Plasma Cell (subcutaneous) in unknown mice

[1] = dose: 62.5 mg/kg/injection, schedule: Q01DX010 (ip), vehicle: carboxymethylcellulose (CMC)
[2] = dose: 125.0 mg/kg/injection, schedule: Q01DX010 (ip), vehicle: carboxymethylcellulose (CMC)
[3] = dose: 250.0 mg/kg/injection, schedule: Q01DX010 (ip), vehicle: carboxymethylcellulose (CMC)
[4] = dose: 500.0 mg/kg/injection, schedule: Q01DX010 (ip), vehicle: carboxymethylcellulose (CMC)
[5] = dose: 1000.0 mg/kg/injection, schedule: Q01DX010 (ip), vehicle: carboxymethylcellulose (CMC)
[6] = dose: 3.75 mg/kg/injection, schedule: Q01DX010 (ip), vehicle: carboxymethylcellulose (CMC)
[7] = dose: 7.5 mg/kg/injection, schedule: Q01DX010 (ip), vehicle: carboxymethylcellulose (CMC)
[8] = dose: 15.0 mg/kg/injection, schedule: Q01DX010 (ip), vehicle: carboxymethylcellulose (CMC)
[9] = dose: 30.0 mg/kg/injection, schedule: Q01DX010 (ip), vehicle: carboxymethylcellulose (CMC)
[10] = dose: 31.25 mg/kg/injection, schedule: Q01DX010 (sc), vehicle: steriod suspending solution
[11] = dose: 250.0 mg/kg/injection, schedule: Q01DX010 (ip), vehicle: saline

## O=CCC(O)C(O)C(O)CO (stereo not drawn)
[1]
  T/C: 110 % of control
[2]
  T/C: 115 % of control
[3]
  T/C: 117 % of control
[4]
  T/C: 80 % of control
[5]
  T/C: 96 % of control
dose: 2000.0 mg/kg/injection, schedule: Q01DX010 (ip), vehicle: carboxymethylcellulose (CMC)
  T/C: 94 % of control

## O=c1cn[nH]c(=O)[nH]1
[2]
  T/C: 75 % of control
[3]
  T/C: 64 % of control
[4]
  T/C: 66 % of control
[5]
  T/C: 38 % of control

## [I][Hg][CH2]C1COC([CH2][Hg][I])CO1 (stereo not drawn)
[6]
  T/C: 87 % of control
[7]
  T/C: 111 % of control
[8]
  T/C: 104 % of control
[9]
  T/C: 115 % of control

## O=c1[nH]c(=O)n(C2CC(O)C(CO)O2)cc1Br (stereo not drawn)
dose: 31.25 mg/kg/injection, schedule: Q01DX010 (ip), vehicle: carboxymethylcellulose (CMC)
  T/C: 80 % of control
[1]
  T/C: 86 % of control
[2]
  T/C: 74 % of control
[4]
  T/C: 88 % of control
[5]
  T/C: 74 % of control

## CCn1cnc2c(=S)nc[nH]c21
dose: 1.0 mg/kg/injection, schedule: Q01DX010 (ip), vehicle: carboxymethylcellulose (CMC)
  T/C: 71 % of control
dose: 2.0 mg/kg/injection, schedule: Q01DX010 (ip), vehicle: carboxymethylcellulose (CMC)
  T/C: 48 % of control
dose: 4.0 mg/kg/injection, schedule: Q01DX010 (ip), vehicle: carboxymethylcellulose (CMC)
  T/C: 11 % of control
dose: 8.0 mg/kg/injection, schedule: Q01DX010 (ip), vehicle: carboxymethylcellulose (CMC)
  T/C: 2 % of control

## C[C@]12CC[C@H](OC3OC(CO)C(O)C(O)C3O)C[C@H]1CC[C@@H]1[C@@H]2CC[C@]2(C)[C@@H](C3=CCOC3=O)CC[C@]12O (stereo partly drawn)
dose: 63.0 micrograms/kg/injection, schedule: Q01DX010 (ip), vehicle: saline
  T/C: 99 % of control
dose: 125.0 micrograms/kg/injection, schedule: Q01DX010 (ip), vehicle: saline
  T/C: 93 % of control
dose: 250.0 micrograms/kg/injection, schedule: Q01DX010 (ip), vehicle: saline
  T/C: 95 % of control

## CC[C@H](c1ccc(O)cc1)[C@@H](CC)c1ccc(O)cc1
[10]
  T/C: 185 % of control
dose: 62.5 mg/kg/injection, schedule: Q01DX010 (sc), vehicle: steriod suspending solution
  T/C: 180 % of control

## Cc1c2oc3c(C)ccc(C(=O)N[C@@H]4C(=O)N[C@H](C(C)C)C(=O)N5CCC[C@H]5C(=O)N(C)CC(=O)N(C)[C@@H](C(C)C)C(=O)O[C@H]4C)c3nc-2c(C(=O)N[C@@H]2C(=O)N[C@H](C(C)C)C(=O)N3CCC[C@H]3C(=O)N(C)CC(=O)N(C)[C@@H](C(C)C)C(=O)O[C@H]2C)c(N)c1=O (I: [aThr][dV]P[Sar][NMeV] / II: [aThr][dV]P[Sar][NMeV]; ester I:1-I:C, II:1-II:C; linker I:N-II:N via Actinocin(9to1))
dose: 4.7 micrograms/kg/injection, schedule: Q01DX010 (ip), vehicle: saline
  T/C: 161 % of control
dose: 6.2 micrograms/kg/injection, schedule: Q01DX010 (ip), vehicle: saline
  T/C: 193 % of control
dose: 9.4 micrograms/kg/injection, schedule: Q01DX010 (ip), vehicle: saline
  T/C: 87 % of control
dose: 12.5 micrograms/kg/injection, schedule: Q01DX010 (ip), vehicle: saline
  T/C: 93 % of control

## Nc1nc(=S)c2ncn(C3OC(CO)C(O)C3O)c2[nH]1 (stereo not drawn)
dose: 0.31 mg/kg/injection, schedule: Q01DX010 (ip), vehicle: carboxymethylcellulose (CMC)
  T/C: 63 % of control
dose: 0.63 mg/kg/injection, schedule: Q01DX010 (ip), vehicle: carboxymethylcellulose (CMC)
  T/C: 31 % of control
dose: 1.25 mg/kg/injection, schedule: Q01DX010 (ip), vehicle: carboxymethylcellulose (CMC)
  T/C: 7 % of control
dose: 2.5 mg/kg/injection, schedule: Q01DX010 (ip), vehicle: carboxymethylcellulose (CMC)
  T/C: 1 % of control

## NC(=O)c1ccc(N)nc1
dose: 0.63 mg/kg/injection, schedule: Q01DX010 (ip), vehicle: saline
  T/C: 69 % of control
dose: 1.25 mg/kg/injection, schedule: Q01DX010 (ip), vehicle: saline
  T/C: 52 % of control
dose: 1.25 mg/kg/injection, schedule: Q01DX010 (ip), vehicle: water
  T/C: 35 % of control
dose: 2.5 mg/kg/injection, schedule: Q01DX010 (ip), vehicle: water
  T/C: 18 % of control

## CC(=O)N(C)C
[11]
  T/C: 60 % of control
dose: 500.0 mg/kg/injection, schedule: Q01DX010 (ip), vehicle: saline
  T/C: 75 % of control
dose: 1000.0 mg/kg/injection, schedule: Q01DX010 (ip), vehicle: saline
  T/C: 51 % of control

## COc1cc2c(c(OC)c1OC)-c1ccc(OC)c(=O)cc1[C@@H](NC(C)=O)CC2
dose: 8.0 micrograms/kg/injection, schedule: Q01DX010 (ip), vehicle: saline
  T/C: 99 % of control
dose: 16.0 micrograms/kg/injection, schedule: Q01DX010 (ip), vehicle: saline
  T/C: 114 % of control
dose: 31.0 micrograms/kg/injection, schedule: Q01DX010 (ip), vehicle: saline
  T/C: 105 % of control

## C[C@H]1C(=O)O[C@@H]2CCN3CC=C(COC(=O)[C@](C)(O)[C@@]1(C)O)[C@H]23
[6]
  T/C: 86 % of control
[7]
  T/C: 56 % of control
[8]
  T/C: 30 % of control
[9]
  T/C: 36 % of control and 44 % of control
dose: 60.0 mg/kg/injection, schedule: Q01DX010 (ip), vehicle: carboxymethylcellulose (CMC)
  T/C: 6 % of control and 17 % of control

## C[n+]1c2ccccc2nc2c(N)cc(N)cc21
dose: 6.25 mg/kg/injection, schedule: Q01DX010 (ip), vehicle: carboxymethylcellulose (CMC)
  T/C: 92 % of control
dose: 12.5 mg/kg/injection, schedule: Q01DX010 (ip), vehicle: carboxymethylcellulose (CMC)
  T/C: 114 % of control
dose: 25.0 mg/kg/injection, schedule: Q01DX010 (ip), vehicle: carboxymethylcellulose (CMC)
  T/C: 99 % of control

## COC(=O)c1nc(-c2ccc3c(n2)C(=O)C(N)=C(OC)C3=O)c(N)c(-c2ccc(OC)c(OC)c2O)c1C
dose: 0.35 mg/kg/injection, schedule: Q01DX010 (ip), vehicle: other
  T/C: 71 % of control
dose: 0.65 mg/kg/injection, schedule: Q01DX010 (ip), vehicle: other
  T/C: 60 % of control
dose: 1.08 mg/kg/injection, schedule: Q01DX010 (ip), vehicle: other
  T/C: 32 % of control
dose: 1.8 mg/kg/injection, schedule: Q01DX010 (ip), vehicle: other
  T/C: 4 % of control

## CCOC(N)=O
[11]
  T/C: 80 % of control and 95 % of control

## N=C(N)SCc1c2ccccc2c(CSC(=N)N)c2ccccc12
dose: 10.0 mg/kg/injection, schedule: Q01DX010 (ip), vehicle: carboxymethylcellulose (CMC)
  T/C: 119 % of control
dose: 20.0 mg/kg/injection, schedule: Q01DX010 (ip), vehicle: carboxymethylcellulose (CMC)
  T/C: 55 % of control

## C[C@]12CCC(=O)C=C1CC[C@@H]1[C@@H]2C(=O)C[C@@]2(C)[C@H]1CC[C@]2(O)C(=O)CO
[10]
  T/C: 7 % of control
dose: 125.0 mg/kg/injection, schedule: Q01DX010 (sc), vehicle: steriod suspending solution
  T/C: 11 % of control
